Where two headings read alike, the source gives them in different places.
Columns and labels:
Assay in all cases: Eurofins kinase selectivity profile against 380 other human recombinant kinases (Table S2)
Format in all cases: biochemical
[1] = target: T1, 380 human recombinant protein kinases (Homo sapiens, UniProt Q9Y2H1); settings: NDR2(h), read-out: Inhibition rate
T1 construct: purchased Eurofins (Celle Lévescault)
Procedure, shortened: (§1)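 Outsourced panel: 380 human recombinant kinases; inhibitor tested at various concentrations; purpose: MK2 selectivity check.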

[2] = target: T2, 380 human recombinant protein kinases (Homo sapiens, UniProt Q00535); settings: read-out: Inhibition rate; for inhibition at 0.01 µM: 10 nM; for inhibition at 0.1 µM: 100 nM; for inhibition at 1 µM: 1000 nM
T2 construct: purchased Eurofins (Celle Lévescault)
T2 sequence (Q00535 whole entry): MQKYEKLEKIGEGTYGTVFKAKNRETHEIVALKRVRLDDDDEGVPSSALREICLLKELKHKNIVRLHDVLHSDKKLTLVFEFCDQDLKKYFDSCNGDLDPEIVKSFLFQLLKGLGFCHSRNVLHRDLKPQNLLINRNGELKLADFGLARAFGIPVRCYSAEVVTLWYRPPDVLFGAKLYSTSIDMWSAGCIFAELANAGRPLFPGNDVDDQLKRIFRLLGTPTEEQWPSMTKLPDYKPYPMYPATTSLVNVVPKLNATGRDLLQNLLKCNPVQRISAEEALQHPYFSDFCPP
Procedure, shortened: as §1

[3] = target: T3, 380 human recombinant protein kinases (Homo sapiens, UniProt Q8NE63); settings: HIPK4(h), read-out: Inhibition rate
T3 construct: purchased Eurofins (Celle Lévescault)
T3 sequence (Q8NE63 1-616): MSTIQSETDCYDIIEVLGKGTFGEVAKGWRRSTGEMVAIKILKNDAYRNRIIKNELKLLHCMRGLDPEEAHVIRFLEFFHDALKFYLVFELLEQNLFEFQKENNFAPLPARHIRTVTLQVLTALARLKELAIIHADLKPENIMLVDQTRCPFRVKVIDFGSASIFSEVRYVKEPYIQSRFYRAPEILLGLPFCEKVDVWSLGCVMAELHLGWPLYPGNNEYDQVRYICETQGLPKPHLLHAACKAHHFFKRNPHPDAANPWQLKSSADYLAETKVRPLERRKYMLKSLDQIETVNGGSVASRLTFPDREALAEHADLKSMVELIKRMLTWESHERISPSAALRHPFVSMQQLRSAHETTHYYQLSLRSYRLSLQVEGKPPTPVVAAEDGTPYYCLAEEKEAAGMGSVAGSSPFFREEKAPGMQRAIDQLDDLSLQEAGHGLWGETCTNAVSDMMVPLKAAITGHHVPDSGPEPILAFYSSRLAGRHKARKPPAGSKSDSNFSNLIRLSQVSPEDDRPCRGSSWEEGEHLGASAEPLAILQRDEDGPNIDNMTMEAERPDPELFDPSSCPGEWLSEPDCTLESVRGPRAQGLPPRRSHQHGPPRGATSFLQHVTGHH
Procedure, shortened: as §1

[4] = target: T4, 380 human recombinant protein kinases (Homo sapiens, UniProt Q04771); settings: ALK2(h), read-out: Inhibition rate
T4 construct: purchased Eurofins (Celle Lévescault)
T4 sequence (Q04771 21-509): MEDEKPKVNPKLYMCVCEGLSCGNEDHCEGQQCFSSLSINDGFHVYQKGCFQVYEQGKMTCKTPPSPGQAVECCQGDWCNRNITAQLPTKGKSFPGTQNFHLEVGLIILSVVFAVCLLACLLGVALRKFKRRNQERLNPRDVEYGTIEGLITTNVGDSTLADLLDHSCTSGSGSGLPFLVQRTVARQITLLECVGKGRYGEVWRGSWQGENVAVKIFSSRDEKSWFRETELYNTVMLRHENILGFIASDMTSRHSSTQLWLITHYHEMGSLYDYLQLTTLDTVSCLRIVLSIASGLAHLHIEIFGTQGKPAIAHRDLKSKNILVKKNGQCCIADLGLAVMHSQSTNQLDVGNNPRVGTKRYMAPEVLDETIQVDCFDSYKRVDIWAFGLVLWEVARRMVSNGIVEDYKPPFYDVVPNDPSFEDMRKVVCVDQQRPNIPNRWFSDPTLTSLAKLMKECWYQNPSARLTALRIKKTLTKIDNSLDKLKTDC
Procedure, shortened: as §1

[5] = target: T5, 380 human recombinant protein kinases (Homo sapiens, UniProt Q9Y2K2); settings: SIK3(h), read-out: Inhibition rate (%)
T5 construct: purchased Eurofins (Celle Lévescault)
T5 sequence (Q9Y2K2 whole entry): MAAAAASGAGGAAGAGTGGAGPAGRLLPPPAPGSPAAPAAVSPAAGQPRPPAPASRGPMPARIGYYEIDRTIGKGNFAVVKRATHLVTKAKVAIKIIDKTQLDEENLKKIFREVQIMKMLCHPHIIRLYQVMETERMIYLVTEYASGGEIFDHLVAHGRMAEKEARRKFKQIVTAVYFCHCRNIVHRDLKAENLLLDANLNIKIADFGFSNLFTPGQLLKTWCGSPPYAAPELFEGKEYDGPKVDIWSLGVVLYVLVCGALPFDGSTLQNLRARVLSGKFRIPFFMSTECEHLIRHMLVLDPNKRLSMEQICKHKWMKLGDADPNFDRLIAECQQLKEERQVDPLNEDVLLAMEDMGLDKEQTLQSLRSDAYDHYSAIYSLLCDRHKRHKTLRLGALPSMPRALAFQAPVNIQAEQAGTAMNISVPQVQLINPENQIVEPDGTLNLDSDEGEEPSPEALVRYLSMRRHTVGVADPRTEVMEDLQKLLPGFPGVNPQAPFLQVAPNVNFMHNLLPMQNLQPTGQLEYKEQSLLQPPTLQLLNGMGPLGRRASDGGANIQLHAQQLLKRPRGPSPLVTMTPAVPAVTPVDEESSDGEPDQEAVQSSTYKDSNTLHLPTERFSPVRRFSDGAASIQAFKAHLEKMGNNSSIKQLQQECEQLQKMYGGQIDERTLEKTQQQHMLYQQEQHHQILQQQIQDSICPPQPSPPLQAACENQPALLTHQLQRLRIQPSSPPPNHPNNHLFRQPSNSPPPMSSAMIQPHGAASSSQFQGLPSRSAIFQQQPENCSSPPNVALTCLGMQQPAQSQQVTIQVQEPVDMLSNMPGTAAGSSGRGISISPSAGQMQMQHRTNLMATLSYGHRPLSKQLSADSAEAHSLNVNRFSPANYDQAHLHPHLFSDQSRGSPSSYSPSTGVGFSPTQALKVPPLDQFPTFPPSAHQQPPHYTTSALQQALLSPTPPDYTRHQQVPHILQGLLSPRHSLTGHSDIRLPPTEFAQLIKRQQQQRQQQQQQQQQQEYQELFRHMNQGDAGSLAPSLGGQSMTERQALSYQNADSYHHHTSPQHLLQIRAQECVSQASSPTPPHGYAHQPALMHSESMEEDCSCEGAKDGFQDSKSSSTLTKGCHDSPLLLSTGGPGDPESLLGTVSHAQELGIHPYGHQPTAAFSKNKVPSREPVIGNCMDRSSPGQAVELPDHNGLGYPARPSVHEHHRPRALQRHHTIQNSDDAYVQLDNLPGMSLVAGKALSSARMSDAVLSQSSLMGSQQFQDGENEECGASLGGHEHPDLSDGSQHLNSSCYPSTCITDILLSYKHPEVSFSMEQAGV
Procedure, shortened: as §1

[6] = target: T6, 380 human recombinant protein kinases (Homo sapiens, UniProt Q9Y4K4); settings: MAP4K5(h), read-out: Inhibition rate
T6 construct: purchased Eurofins (Celle Lévescault)
T6 sequence (Q9Y4K4 whole entry): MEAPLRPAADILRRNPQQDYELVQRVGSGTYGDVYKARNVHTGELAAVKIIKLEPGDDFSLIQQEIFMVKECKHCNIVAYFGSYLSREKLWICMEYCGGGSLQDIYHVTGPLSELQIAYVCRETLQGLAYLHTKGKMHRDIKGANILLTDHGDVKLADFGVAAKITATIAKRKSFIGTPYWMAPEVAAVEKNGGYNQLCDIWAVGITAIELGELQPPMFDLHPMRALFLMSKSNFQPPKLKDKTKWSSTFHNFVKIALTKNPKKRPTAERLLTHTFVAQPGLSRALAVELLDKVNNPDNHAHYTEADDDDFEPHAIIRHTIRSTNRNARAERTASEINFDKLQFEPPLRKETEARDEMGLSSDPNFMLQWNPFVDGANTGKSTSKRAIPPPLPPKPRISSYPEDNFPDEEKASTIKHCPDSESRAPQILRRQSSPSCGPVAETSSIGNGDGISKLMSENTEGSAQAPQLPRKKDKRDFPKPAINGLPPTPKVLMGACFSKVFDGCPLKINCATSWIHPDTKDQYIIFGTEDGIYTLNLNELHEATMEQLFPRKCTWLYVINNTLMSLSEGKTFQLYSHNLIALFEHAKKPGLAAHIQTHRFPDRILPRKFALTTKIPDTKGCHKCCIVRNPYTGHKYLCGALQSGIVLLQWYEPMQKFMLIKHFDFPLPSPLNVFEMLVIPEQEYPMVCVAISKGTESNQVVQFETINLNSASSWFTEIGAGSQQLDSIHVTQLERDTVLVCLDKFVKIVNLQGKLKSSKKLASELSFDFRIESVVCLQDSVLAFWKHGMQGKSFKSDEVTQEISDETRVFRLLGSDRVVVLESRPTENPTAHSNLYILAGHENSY
Procedure, shortened: as §1

[7] = target: T7, 380 human recombinant protein kinases (Homo sapiens, UniProt Q86Z02); settings: HIPK1(h), read-out: Inhibition rate
T7 construct: purchased Eurofins (Celle Lévescault)
T7 sequence (Q86Z02 whole entry): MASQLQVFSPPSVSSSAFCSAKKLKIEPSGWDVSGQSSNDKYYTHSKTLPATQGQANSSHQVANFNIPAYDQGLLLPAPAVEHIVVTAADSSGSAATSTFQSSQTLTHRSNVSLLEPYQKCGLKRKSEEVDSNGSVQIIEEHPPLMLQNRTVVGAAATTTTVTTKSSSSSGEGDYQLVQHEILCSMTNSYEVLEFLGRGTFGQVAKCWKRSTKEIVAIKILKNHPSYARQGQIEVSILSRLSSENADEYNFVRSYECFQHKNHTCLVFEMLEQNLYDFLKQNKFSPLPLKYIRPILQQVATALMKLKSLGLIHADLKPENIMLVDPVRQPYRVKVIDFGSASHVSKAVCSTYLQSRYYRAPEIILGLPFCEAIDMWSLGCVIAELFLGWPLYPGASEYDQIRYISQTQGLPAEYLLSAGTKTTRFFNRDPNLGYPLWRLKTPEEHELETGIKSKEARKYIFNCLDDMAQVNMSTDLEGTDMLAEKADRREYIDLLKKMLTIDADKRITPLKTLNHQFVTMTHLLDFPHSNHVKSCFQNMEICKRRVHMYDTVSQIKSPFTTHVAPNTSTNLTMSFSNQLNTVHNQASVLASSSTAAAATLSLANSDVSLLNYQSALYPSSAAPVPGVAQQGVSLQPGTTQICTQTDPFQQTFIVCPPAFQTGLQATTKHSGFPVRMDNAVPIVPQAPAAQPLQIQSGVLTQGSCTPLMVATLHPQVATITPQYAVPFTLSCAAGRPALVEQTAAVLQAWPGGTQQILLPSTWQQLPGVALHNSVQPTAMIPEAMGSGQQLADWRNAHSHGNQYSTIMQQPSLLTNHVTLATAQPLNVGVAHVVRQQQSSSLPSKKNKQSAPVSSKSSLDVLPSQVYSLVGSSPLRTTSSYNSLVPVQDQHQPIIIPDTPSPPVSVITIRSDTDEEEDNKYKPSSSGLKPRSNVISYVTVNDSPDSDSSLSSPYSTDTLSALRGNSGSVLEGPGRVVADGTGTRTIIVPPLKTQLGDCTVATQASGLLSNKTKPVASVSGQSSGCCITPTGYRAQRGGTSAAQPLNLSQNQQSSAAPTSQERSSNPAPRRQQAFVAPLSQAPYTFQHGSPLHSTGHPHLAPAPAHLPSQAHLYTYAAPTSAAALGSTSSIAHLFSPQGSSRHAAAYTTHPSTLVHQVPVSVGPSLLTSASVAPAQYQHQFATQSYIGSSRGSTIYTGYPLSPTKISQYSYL
Procedure, shortened: as §1

[8] = target: T8, 380 human recombinant protein kinases (Homo sapiens, UniProt P29376); settings: LTK(h), read-out: Inhibition rate
T8 construct: purchased Eurofins (Celle Lévescault)
T8 sequence (P29376 17-864): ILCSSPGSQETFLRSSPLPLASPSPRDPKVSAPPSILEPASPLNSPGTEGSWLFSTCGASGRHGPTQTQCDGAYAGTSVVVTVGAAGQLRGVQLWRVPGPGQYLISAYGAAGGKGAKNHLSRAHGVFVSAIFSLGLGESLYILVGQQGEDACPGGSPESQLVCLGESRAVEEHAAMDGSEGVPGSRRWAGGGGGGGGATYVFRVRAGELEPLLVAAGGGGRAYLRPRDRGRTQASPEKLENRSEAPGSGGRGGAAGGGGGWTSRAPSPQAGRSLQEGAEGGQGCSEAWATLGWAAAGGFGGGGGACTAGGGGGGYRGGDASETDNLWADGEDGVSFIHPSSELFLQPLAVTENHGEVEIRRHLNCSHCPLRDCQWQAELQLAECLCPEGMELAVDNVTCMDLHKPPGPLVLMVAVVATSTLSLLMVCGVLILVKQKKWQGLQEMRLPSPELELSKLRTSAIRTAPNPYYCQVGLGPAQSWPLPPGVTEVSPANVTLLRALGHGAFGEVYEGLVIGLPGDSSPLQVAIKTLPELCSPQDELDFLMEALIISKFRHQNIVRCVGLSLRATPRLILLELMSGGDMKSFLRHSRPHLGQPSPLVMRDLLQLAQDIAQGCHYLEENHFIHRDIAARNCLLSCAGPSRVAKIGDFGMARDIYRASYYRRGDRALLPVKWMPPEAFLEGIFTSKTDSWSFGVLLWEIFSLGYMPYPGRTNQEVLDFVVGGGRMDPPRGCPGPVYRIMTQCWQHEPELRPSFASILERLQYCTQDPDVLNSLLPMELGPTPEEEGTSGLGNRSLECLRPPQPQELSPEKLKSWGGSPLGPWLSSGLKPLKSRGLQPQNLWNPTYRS
Procedure, shortened: as §1

[9] = target: T9, 380 human recombinant protein kinases (Homo sapiens, UniProt Q16654); settings: PDHK4(h), read-out: Inhibition rate
T9 construct: purchased Eurofins (Celle Lévescault)
Procedure, shortened: as §1

[10] = target: T10, 380 human recombinant protein kinases (Homo sapiens, UniProt Q9H2X6); settings: HIPK2(h), read-out: Inhibition rate
T10 construct: purchased Eurofins (Celle Lévescault)
Procedure, shortened: as §1

T1 sequence (Q9Y2H1 whole entry): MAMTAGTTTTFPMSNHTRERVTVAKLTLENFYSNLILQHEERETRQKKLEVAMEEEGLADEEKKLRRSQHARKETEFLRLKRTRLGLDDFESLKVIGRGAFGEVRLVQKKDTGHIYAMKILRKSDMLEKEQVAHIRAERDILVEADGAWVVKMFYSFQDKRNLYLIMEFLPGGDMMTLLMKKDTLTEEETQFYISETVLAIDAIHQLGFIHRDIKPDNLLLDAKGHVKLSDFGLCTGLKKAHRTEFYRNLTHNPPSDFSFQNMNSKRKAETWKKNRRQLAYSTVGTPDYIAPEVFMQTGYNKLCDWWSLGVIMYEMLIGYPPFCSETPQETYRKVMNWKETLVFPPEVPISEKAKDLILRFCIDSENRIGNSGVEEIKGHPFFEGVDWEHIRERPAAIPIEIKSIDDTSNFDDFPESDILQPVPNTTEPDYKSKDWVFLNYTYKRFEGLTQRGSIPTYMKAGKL

Compound: C=CC(=O)Nc1cc(-c2cc(-c3cc4c([nH]3)CCNC4=O)ccn2)ccc1OC(F)(F)F [compound 11]
- inhibition at 0.01 µM ([1]; 10 nM): -5%
- inhibition at 0.1 µM ([1]; 100 nM): -10%
- inhibition at 1 µM ([1]; 1000 nM): -2%
- inhibition at 0.01 µM ([2]; CDK5/p25(h)): -6%
- inhibition at 0.1 µM ([2]; CDK5/p25(h)): 2%
- inhibition at 1 µM ([2]; CDK5/p25(h)): -2%
- inhibition at 0.01 µM ([2]; CDK5/p35(h)): -7%
- inhibition at 0.1 µM ([2]; CDK5/p35(h)): -6%
- inhibition at 1 µM ([2]; CDK5/p35(h)): 5%
- inhibition at 0.01 µM ([3]; 10 nM): -23%
- inhibition at 0.1 µM ([3]; 100 nM): -10%
- inhibition at 1 µM ([3]; 1000 nM): 23%
- inhibition at 0.01 µM ([4]; 10 nM): -4%
- inhibition at 0.1 µM ([4]; 100 nM): -6%
- inhibition at 1 µM ([4]; 1000 nM): 0%
- inhibition at 0.01 µM ([5]; 10 nM): 6%
- inhibition at 0.1 µM ([5]; 100 nM): 1%
- inhibition at 1 µM ([5]; 1000 nM): 12%
- inhibition at 0.01 µM ([6]; 10 nM): -7%
- inhibition at 0.1 µM ([6]; 100 nM): -5%
- inhibition at 1 µM ([6]; 1000 nM): 12%
- inhibition at 0.01 µM ([7]; 10 nM): -21%
- inhibition at 0.1 µM ([7]; 100 nM): -9%
- inhibition at 1 µM ([7]; 1000 nM): -3%
- inhibition at 0.01 µM ([8]; 10 nM): -6%
- inhibition at 0.1 µM ([8]; 100 nM): 2%
- inhibition at 1 µM ([8]; 1000 nM): 6%
- inhibition at 0.01 µM ([9]; 10 nM): -5%
- inhibition at 0.1 µM ([9]; 100 nM): -7%
- inhibition at 1 µM ([9]; 1000 nM): -19%
- inhibition at 0.01 µM ([10]; 10 nM): -13%
- inhibition at 0.1 µM ([10]; 100 nM): -9%
- inhibition at 1 µM ([10]; 1000 nM): 3%

Source: paper PMC11233931, “Remodeling tumor‐associated macrophage for anti‐cancer effects by rational design of irreversible inhibition of mitogen‐activated protein kinase‐activated protein kinase 2” (MedComm, 2024)
